Tested on: 192522-019-R-J2-PDC complex tumor spheroid viability
Test: Anticancer human tumor 192522-019-R-J2-PDC patient-derived colon adenocarcinoma cell line growth inhibition [POLQ]
Conditions: for IC50: curve of first compound; for viability, T/C: stronger effect = lower value
Experimental: Multicellular complex tumor spheroid response to Polymerase (POL) inhibitors (novobiocin, ART-558, RP6685) in combination with a variety of drugs and investigational agents in selected tumor cell lines
The POL inhibitors (novobiocin, ART-558, and RP6685) were evaluated both individually and in combination with standard of care and investigational anticancer small molecules within a complex spheroid model of solid tumors. . Complex spheroids include a stromal component modeled by human endothelial cells (HUVEC) and fibroblasts modeled by human mesenchymal stem cells (MSCs). The concentration ranges selected for each drug and investigational agent were based upon clinically achievable concentrations if the clinical Cmax of the agent was known.
Compounds. The drugs and investigational agents: novobiocin (NSC847541), ART-558 (NSC835418), RP-6685 (NSC848927), peposertib (NSC802822), ceralasertib (NSC780249), elimusertib (NSC800525), camonsertib (NSC841442), AZD-1390 (NSC803789), olaparib (NSC753686), talazoparib (NSC767125), rucaparib (NSC756644), sotorasib (NSC818433), MRTX-1133 (NSC836407), SN-38 (NSC673596), topotecan (NSC609699), epotoside (NSC141540), doxorubicin (NSC123127), gemcitabine (NSC613327), 5-fluorouracil (NSC19893), paclitaxel (NSC125973), vemurafenib (NSC761431), MSA-2 (NSC828583), SN-011 (NSC837082), adavosertib (NSC754352), prexasertib (NSC758257), carboplatin (NSC241240) and oxaliplatin (NSC266046), were obtained from the National Cancer Institute (NCI) Developmental Therapeutics Program Chemical Repository (21). The FDA-approved anticancer drug set is available from the Developmental Therapeutics Program at https://dtp.cancer.gov/organization/dscb/obtaining/. […] The stock solutions were prepared in dimethyl sulfoxide (DMSO, Sigma-Aldrich, St. Louis, MO, cat. D2650), except for the platinum compounds which were prepared in saline (Quality Biological, Gaithersburg, MD, cat. 114-055-101), at 800-fold the tested concentration and stored at -70 degrees C prior to their use. All drugs and investigational agents were tested over a range starting from a high concentration at or near the clinical Cmax and decreasing in half-log increments. If the clinical Cmax for an agent had not been determined, the highest concentration tested was 10 microM, except for SN-38, which was tested at a high concentration of 1 microM.
Cell Culture. All cells were maintained in an incubator at 37 degrees C and 5% CO2 with 95% humidity. The PDC lines were cultured according to standard operating procedures established by the NCI PDMR (https://pdmr.cancer.gov). Table 3 of the manuscript, lists the cell lines along with the number of the three cell types plated to form the mct-spheroids and media for tumor cell growth. After thawing, all PDC lines, except 997537-175-T-J1-PDC and 415267-285-R-J2-PDC, were cultured in Matrigel-coated flasks prepared with a working solution of 1X Ham's F-12 nutrient mix, without supplementation (Thermo Fisher Scientific, cat. 11765054), 100 U/mL penicillin-streptomycin (Thermo Fisher Scientific, cat. 15140122), and 2.5% Matrigel (Corning Inc., Corning, NY, cat. 354248) for the first three passages. The two PDC lines 997537-175-T-J1-PDC and 415267-285-R-J2-PDC were cultured on uncoated flasks. The 857933-349-R-J2-PDC line was cultured in 6C/Colon 1B media containing advanced DMEM/F-12 (Thermo Fisher Scientific, cat. 12634028), 10 mM HEPES (Thermo Fisher Scientific, cat. 15630080), 1X GlutaMAX supplement (Thermo Fisher Scientific, cat. 35050061), 0.1 mg/mL primocin (InvivoGen, San Diego, CA, cat. ant-pm-2), 10% defined fetal bovine serum, heat inactivated (HyClone Laboratories Inc., Logan, UT, cat. SH30070.03HI), 50% L-WRN conditioned media (ATCC, cat. CRL-3276), 1.25 mM N-Acetyl-L-cysteine (Sigma-Aldrich, cat. A9165), 10 mM nicotinamide (Sigma-Aldrich, cat. N0636), 1X B-27 supplement (Thermo Fisher Scientific, cat. 17504044), 1X N-2 supplement (Thermo Fisher Scientific, cat. […]

[1] = second compound 0.0316 µM, first compound 0.0316 µM
[2] = second compound 0.0316 µM, first compound 0.1 µM
[3] = second compound 0.0316 µM, first compound 0.316 µM
[4] = second compound 0.0316 µM, first compound 1 µM
[5] = second compound 0.0316 µM, first compound 3.16 µM
[6] = second compound 0.0316 µM, first compound 10 µM
[7] = second compound 0.1 µM, first compound 0.0316 µM
[8] = second compound 0.1 µM, first compound 0.1 µM
[9] = second compound 0.1 µM, first compound 0.316 µM
[10] = second compound 0.1 µM, first compound 1 µM
[11] = second compound 0.1 µM, first compound 3.16 µM
[12] = second compound 0.1 µM, first compound 10 µM
[13] = second compound 0.316 µM, first compound 0.0316 µM
[14] = second compound 0.316 µM, first compound 0.1 µM
[15] = second compound 0.316 µM, first compound 0.316 µM
[16] = second compound 0.316 µM, first compound 1 µM
[17] = second compound 0.316 µM, first compound 3.16 µM
[18] = second compound 0.316 µM, first compound 10 µM
[19] = second compound 1 µM, first compound 0.0316 µM
[20] = second compound 1 µM, first compound 0.1 µM
[21] = second compound 1 µM, first compound 0.316 µM
[22] = second compound 1 µM, first compound 1 µM
[23] = second compound 1 µM, first compound 3.16 µM
[24] = second compound 1 µM, first compound 10 µM
[25] = second compound 3.16 µM, first compound 0.0316 µM
[26] = second compound 3.16 µM, first compound 0.1 µM
[27] = second compound 3.16 µM, first compound 0.316 µM
[28] = second compound 3.16 µM, first compound 1 µM
[29] = second compound 3.16 µM, first compound 3.16 µM
[30] = second compound 3.16 µM, first compound 10 µM
[31] = second compound 10 µM, first compound 0.0316 µM
[32] = second compound 10 µM, first compound 0.1 µM
[33] = second compound 10 µM, first compound 0.316 µM
[34] = second compound 10 µM, first compound 1 µM
[35] = second compound 10 µM, first compound 3.16 µM
[36] = second compound 10 µM, first compound 10 µM
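Also: spheroids exposed to drugs for seven days before reading.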
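For viability, T/C in this document: 100% = DMSO vehicle control viability in luminescence.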

In the case of `COc1cccc2c1C(=O)c1c(O)c3c(c(O)c1C2=O)CC(O)(C(=O)CO)CC3OC1CC(N)C(O)C(C)O1` (centres undefined) + Nc1ccc(C#CCN(C(=O)Cc2ncc(C(F)(F)F)cc2C(F)(F)F)c2ccc(F)cc2)nn1, the IC50 (second compound 0.0316 µM) is reported as over 10 µM, the IC50 (second compound 0.1 µM) is reported as over 10 µM and the IC50 (second compound 0.316 µM) is reported as over 10 µM. The IC50 (second compound 1 µM) was over 10 µM, the IC50 (second compound 3.16 µM) was over 10 µM and the IC50 (second compound 10 µM) was over 10 µM. It also gave a viability, T/C [1] of 100%, a viability, T/C [2] of 85% and a viability, T/C [3] of 79.4%. The viability, T/C [4] was 75.7%, the viability, T/C [5] was 74% and the viability, T/C [6] was 58.9%. The viability, T/C [7] was 108%, the viability, T/C [8] was 80.4% and the viability, T/C [9] was 81.6%. It also gave a viability, T/C [10] of 79.9%, a viability, T/C [11] of 68.4% and a viability, T/C [12] of 62.4%. It also gave a viability, T/C [13] of 100%, a viability, T/C [14] of 89% and a viability, T/C [15] of 80.1%. For the same compound, the viability, T/C [16] was 81.5%, the viability, T/C [17] was 73.5% and the viability, T/C [18] was 62.7%. The viability, T/C [19] was 88.6%, the viability, T/C [20] was 81.9% and the viability, T/C [21] was 81.2%. The viability, T/C [22] was 71.2%, the viability, T/C [23] was 67.8% and the viability, T/C [24] was 58%. The viability, T/C [25] was 96.7%, the viability, T/C [26] was 85% and the viability, T/C [27] was 87.9%. It also gave a viability, T/C [28] of 75.4%, a viability, T/C [29] of 69.2% and a viability, T/C [30] of 58.1%. The viability, T/C [31] was 92.4%, the viability, T/C [32] was 81.2% and the viability, T/C [33] was 94.7%. It also gave a viability, T/C [34] of 71.5%, a viability, T/C [35] of 60.4% and a viability, T/C [36] of 49.1%.

`O=c1[nH]cc(F)c(=O)[nH]1` + Nc1ccc(C#CCN(C(=O)Cc2ncc(C(F)(F)F)cc2C(F)(F)F)c2ccc(F)cc2)nn1 showed an IC50 (second compound 0.0316 µM) of over 10 µM, an IC50 (second compound 0.1 µM) of over 10 µM and an IC50 (second compound 0.316 µM) of over 10 µM. For the same compound, the IC50 (second compound 1 µM) was over 10 µM, the IC50 (second compound 3.16 µM) was over 10 µM and the IC50 (second compound 10 µM) was over 10 µM. For the same compound, the viability, T/C [1] was 99.2%, the viability, T/C [2] was 98.4% and the viability, T/C [3] was 92.5%. For the same compound, the viability, T/C [4] was 90.4%, the viability, T/C [5] was 96.4% and the viability, T/C [6] was 90.3%. The viability, T/C [7] was 104%, the viability, T/C [8] was 101% and the viability, T/C [9] was 95%. It also gave a viability, T/C [10] of 95.9%, a viability, T/C [11] of 91.2% and a viability, T/C [12] of 85.6%. The viability, T/C [13] was 104%, the viability, T/C [14] was 93.5% and the viability, T/C [15] was 96.4%. It also gave a viability, T/C [16] of 85.3%, a viability, T/C [17] of 88.2% and a viability, T/C [18] of 96.4%. It also gave a viability, T/C [19] of 104%, a viability, T/C [20] of 98.1% and a viability, T/C [21] of 98.5%. The viability, T/C [22] was 92.2%, the viability, T/C [23] was 96% and the viability, T/C [24] was 89.2%. It also gave a viability, T/C [25] of 102%, a viability, T/C [26] of 98.9% and a viability, T/C [27] of 92.8%. It also gave a viability, T/C [28] of 96.6%, a viability, T/C [29] of 95.8% and a viability, T/C [30] of 90.1%. For the same compound, the viability, T/C [31] was 116%, the viability, T/C [32] was 95.1% and the viability, T/C [33] was 91.1%. For the same compound, the viability, T/C [34] was 85.9%, the viability, T/C [35] was 93.5% and the viability, T/C [36] was 90.5%.

From PubChem BioAssay AID1963850 (Molecular Pharmacology Branch, DTP, NCI, 2024)
